Measured values as given in patent US5510345A, “Biologically active eburnamenine derivatives, pharmaceutical compositions containing them and process for preparing same” (Richter Gedeon Vegyeszeti Gyar Rt., priority 1992, dated 1996).
Where a name gives a salt, the structure may show the parent alone.

Assays:
[1] = test system: NADPH-induced lipid peroxidation in rat brain microsomes; assay: Inhibition of the NADPH-induced (enzymatically induced) lipid peroxidation in brain microsomes; format: biochemical, rat (male Hannover-Wistar); conditions: 20 min, 37° C., pH 6.8, 0.4 mM NADPH, malondialdehyde at 535 nm, N.I.: no inhibition
Text: The pharmacological effect of the eburnamenine derivatives of the formula (I) was studied as described hereinafter. […] The antioxidative effect was investigated on microsomes prepared from rat brain J. Neurochem. 37, pages 422-426 (1981)! and on rat brain homogenate J. Biol Chem. 262, pages 10438-10440 (1987)!. Inhibition of the NADPH-induced lipid peroxidation in brain microsomes Male Hannover-Wistar rats with a body weight of 150-250 g were used for the preparation of microsomes. After decapitation, the whole brain of the rat was removed and homogenized in a 10-fold volume of ice-cold 0.25M saccharose solution. The homogenate was centrifuged in a Hitachi CR 26H equipment at 15000×g at 4° C. for 10 minutes, then the supernatant was collected and centrifuged in a Hitachi SC[…] equipment at 78000×g at 4° C. for 60 minutes. After suspending the precipitate in 0.15M potassium chloride solution, the protein content of the obtained solution was determined and then adjusted to 10 mg/ml concentration. The microsome thus obtained was frozen in a dry ice-acetone mixture and stored at -70° C. until use. The components of the incubation mixtures were: 50 mM tris(hydroxymethyl)aminomethane hydrochloride (pH 6.8), 0.2 mM ferric chloride, 1 mM potassium dihydrogen phosphate, 0.5 mM adenosine-5'-diphosphate, 0.2 mg of microsomes as well as the compound to be tested. The incubation was carried out with a final volume of 1 ml and an incubation time of 20 minutes at a temperature of 37° C. The lipid peroxidation was induced by adding 0.4 mM NADPH ([…], reduced form). […] The formation of malondialdehyde was determined by using thiobarbituric acid. After stopping the reaction, 1 ml of 1% thiobarbituric acid solution each was added to the samples, which were then 10 placed in a water bath of about 100° C. for 10 minutes. Subsequently, the samples were centrifuged at 2000×g in a Janetzki K70 apparatus at 4° C. for 10 minutes. The absorbance value of the colored supernatant was measured at 535 nm in a Hitachi 150-20 spectrophotometer. Malondialdehyde bis(diethylacetal) was used as reference compound. The IC50 values of the compounds were determined on the basis of the concentration/effect correlations thereof and are indicated in Table I.

[2] = test system: Fe^2+-induced lipid peroxidation in rat brain homogenate; assay: Effect on the Fe^2+-induced (non-enzymatically induced) lipid peroxidation in brain homogenate; format: biochemical, rat (Hannover-Wistar); conditions: for inhibition of the Fe^2+-induced lipid peroxidation compared with silymarin or ellagic acid / inhibitory effect on the Fe^2+-induced lipid peroxidation compared with DL-α-tocopherol / antioxidant activity compared with tirilazad mesylate: in words, from Table I; for IC50: rat brain homogenate, 20 min, 37° C., pH 7.4, 8 mM ferrous diammonium disulfate solution (5 μl), malondialdehyde at 535 nm, read-out: Inhibition of the Fe^2+-induced lipid peroxidation IC50
Description: Effect on the Fe^2 +-induced lipid peroxidation in brain homogenate
After decapitating Hannover-Wistar rats weighing 150-220 g each, the whole brain was homogenized in 9 volumes of icecold Krebs-Ringer's buffer containing 15 mM 4-(2-hydroxyethyl)-1-(piperazinylethanesulfonic acid (abbreviated: HEPES, pH 7.4), 140 mM sodium chloride, 3.6 mM potassium chloride, 1.5 mM calcium chloride, 0.7 mM magnesium chloride, 1.4 mM potassium dihydrogen phosphate and 10 mM glucose!. Then, the protein content of the solution was determined and adjusted to 10 mg/ml concentration.
After adding the inhibitory agent to be tested in a volume of 5 ml to 200 μl of the homogenate, the incubation mixture was incubated at 37° C. for 20 minutes. The Fe^2+ -induced lipid peroxidation was accomplished by adding 5 μl of 8 mM ferrous diammonium disulfate Fe(NH4)2 (SO4)2 ! solution. After passing of the incubation time, the reaction was stopped by adding 1 ml of a stopping solution containing 0.8M hydrogen chloride in trichloroacetic acid solution of 12.5%; then the samples were centrifuged at 2000×g in a Janetzki apparatus at 4° C. for 10 minutes.
To 0.5 ml portion of the supernatant, 1 ml of 1% thiobarbituric acid solution was added, then the samples were placed in a water bath of 100° C. for 20 minutes. The color intensity developed was determined at 535 nm with the aid of a Hitachi 150-20 spectrophotometer by using malondialdehyde bis(diethylacetal) as reference compound.

SMILES	IC50 [1]	inhibition of the Fe^2+-induced lipid peroxidation compared with silymarin or ellagic acid [2]	inhibitory effect on the Fe^2+-induced lipid peroxidation compared with DL-α-tocopherol [2]	IC50 [2]	antioxidant activity compared with tirilazad mesylate [2]	Inhibition of the NADPH-induced lipid peroxidation IC50 [1]
CCC12C=C(C(=O)N3CCN(c4cc(N5CCCC5)nc(N5CCCC5)n4)CC3)n3c4c(c5ccccc53)CCN(CCC1)C42 (stereo not drawn) [Compound 3, 1-(16α)-eburnamenine-14-carbonyl!-4-2,6-bis(pyrrolidino)-4-pyrimidinyl!piperazine]	2.4 µM	more effectively than the hepatoprotective silymarin or the anticancerogenic ellagic acid	reaches the antioxidant activity of the therapeutically used DL-α-tocopherol	11.4 µM	–	–
CC[C@@]12C=C(CN3CCN(c4cc(N5CCCC5)nc(N5CCCC5)n4)CC3)n3c4c(c5ccccc53)CCN(CCC1)[C@H]42 [Compound 2, 1-{ (3α,16α)-eburnamenine-14-yl!methyl}-4-2,6-bis(pyrrolidino)-4-pyrimidinyl!piperazine trihydrobromide]	6.2 µM	–	–	112 µM	reaches and even exceeds to some extent the lipid peroxidation-inhibiting effect of tirilazad mesylate	–
O=c1oc2c(O)c(O)cc3c(=O)oc4c(O)c(O)cc1c4c23 [Ellagic acid, 4,4',5,5',6,6'-hexahydrodiphenic acid 2,6':2',6-dilactone, reference compound]	47.2 µM	–	–	51 µM	–	–
Cc1c(C)c2c(c(C)c1O)CCC(C)(CCCC(C)CCCC(C)CCCC(C)C)O2 (racemic) [DL-α-Tocopherol, reference compound]	–	–	–	10.5 µM	–	N.I.
CC[C@@]12C=C(C(=O)N3CCN(c4cc(N5CCCC5)nc(N5CCCC5)n4)CC3)n3c4c(c5ccccc53)CCN(CCC1)[C@H]42 [Compound 1, 1-(3α,16α)-eburnamenine-14-carbonyl!-4-2,6-bis(pyrrolidino)-4-pyrimidinyl!piperazine]	24.2 µM	–	–	124 µM	reaches and even exceeds to some extent the lipid peroxidation-inhibiting effect of tirilazad mesylate	–
C[C@@H]1C[C@H]2[C@@H]3CCC4=CC(=O)C=C[C@]4(C)C3=CC[C@]2(C)[C@H]1C(=O)CN1CCN(c2cc(N3CCCC3)nc(N3CCCC3)n2)CC1 [Tirilazad mesylate, 16α-methyl-21-{4-2,4-bis(pyrrolidino)6-pyrimidinyl!-1-piperazinyl}-pregna-1,4,9(11)-trien-3,20-dione methanesulfonate, reference compound]	121 µM	–	–	135 µM	–	–
CCC12C=C(C(=O)N3CCN(c4cc(N5CCCC5)nc(N5CCCC5)n4)CC3)n3c4c(c5ccccc53)CCN(CCC1)C42 (stereo not drawn) [Compound 4, 1-(3α)-eburnamenine-14-carbonyl!-4-2,6-bis(pyrrolidino)-4-pyrimidinyl!piperazine]	3.1 µM	more effectively than the hepatoprotective silymarin or the anticancerogenic ellagic acid	reaches the antioxidant activity of the therapeutically used DL-α-tocopherol	10.3 µM	–	–
